From patent publication US10577363B2, “Substituted piperidine compounds” (EPIZYME, INC., priority 2014, dated 2020)

What was measured:
SMYD3 [1] = target: T1, SMYD3 (Homo sapiens (Human), UniProt Q9H7B4); assay: SMYD3 biochemical assay (SPA, 3H-SAM methylation of MEKK2 protein substrate); conditions: read-out: SMYD3 Biochem IC50*
In short: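 SPA methyltransferase format: tag-cleaved human SMYD3, insect-cell GST-MEKK2 protein substrate, 3H-SAM donor, 30 min RT enzyme–compound preincubation, 100 uM cold SAM quench.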

SMYD3 [2] = target: T1, SMYD3; assay: SMYD3 cell assay (Trimethyl-MEKK2 In-Cell Western in 293T/17 cells); type: cell-based; conditions: read-out: SMYD3 Cell IC50*
In short: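 In-Cell Western readout: methanol-fixed cells stained for trimethyl-MEKK2 and flag tag, ratio per well normalized to DMSO and background controls.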

T1 sequence (Q9H7B4 whole entry): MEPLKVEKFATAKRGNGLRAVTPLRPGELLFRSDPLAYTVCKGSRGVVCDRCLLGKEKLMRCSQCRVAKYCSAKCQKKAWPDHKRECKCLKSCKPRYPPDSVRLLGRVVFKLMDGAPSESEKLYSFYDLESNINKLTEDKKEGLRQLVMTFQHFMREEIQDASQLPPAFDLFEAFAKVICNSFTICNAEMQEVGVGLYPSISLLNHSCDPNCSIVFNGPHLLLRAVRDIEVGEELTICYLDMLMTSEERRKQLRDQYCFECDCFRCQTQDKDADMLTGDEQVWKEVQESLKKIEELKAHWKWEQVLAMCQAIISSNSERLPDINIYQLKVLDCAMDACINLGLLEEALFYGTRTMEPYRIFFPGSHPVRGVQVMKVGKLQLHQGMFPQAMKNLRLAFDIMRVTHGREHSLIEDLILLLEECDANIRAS

| Structure (SMILES) | IC50 (SMYD3 [1]) [nM] | IC50 (SMYD3 [2]) [nM] |
| --- | --- | --- |
| CCc1cc(C(=O)N[C@H]2C[C@H]3CC[C@@H](C2)N3S(=O)(=O)N2CCC(N)CC2)no1 [compound 799, N-((1R,3r,5S)-8-((4-aminopiperidin-1-yl)sulfonyl)-8-azabicyclo[3.2.1]octan-3-yl)-5-ethylisoxazole-3-carboxamide] | 2.05 | 34.6 |
| CC1CN(S(=O)(=O)N2CC[C@H](NC(=O)c3cc(C4CC4)on3)C[C@@H]2C)CCC1N (stereo partly drawn) [compound 800, N-((2S,4S)-1-((4-amino-3-methylpiperidin-l-yl)sulfonyl)-2-methylpiperidin-4-yl)-5-cyclopropylisoxazole-3-carboxamide] | 2.18 | 39.7 |
| NC1C2CN(S(=O)(=O)N3[C@@H]4CC[C@H]3C[C@@H](NC(=O)c3cc(C5CC5)on3)C4)CC12 (stereo partly drawn) [compound 801, N-((1R,3r,5S)-8-((6-amino-3-azabicyclo[3.1.0]hexan-3-yl)sulfonyl)-8-azabicyclo[3.2.1]octan-3-yl)-5-cyclopropylisoxazole-3-carboxamide] | 2.19 | 27.7 |
| CNC1CCC(CS(=O)(=O)N2CC[C@H](NC(=O)c3cc(C4CC4)on3)C[C@@H]2C)C1 (stereo partly drawn) [compound 802, 5-cyclopropyl-N-((2S,4S)-2-methyl-1-(((3-(methylamino)cyclopentyl)methyl)sulfonyl)piperidin-4-yl)isoxazole-3-carboxamide] | 2.3 | 27 |
| CC1CC(N)CCN1S(=O)(=O)N1[C@@H]2CC[C@H]1C[C@@H](NC(=O)c1cc(C3CC3)on1)C2 (stereo partly drawn) [compound 803, N-((1R,3r,5S)-8-((4-amino-2-methylpiperidin-1-yl)sulfonyl)-8-azabicyclo[3.2.1]octan-3-yl)-5-cyclopropylisoxazole-3-carboxamide] | 2.31 | 59 |
| C[C@H]1C[C@@H](NC(=O)c2cc(C3CC3)on2)CCN1S(=O)(=O)N1CCC2(CCCN2)CC1 [compound 804, N-((2S,4S)-1-((1,8-diazaspiro[4.5]decan-8-yl)sulfonyl)-2-methylpiperidin-4-yl)-5-cyclopropylisoxazole-3-carboxamide] | 2.36 | 60.8 |
| CN(C)C1CCN(S(=O)(=O)N2[C@@H]3CC[C@H]2C[C@@H](NC(=O)c2cc(C4CC4)on2)C3)CC1 [compound 805, 5-cyclopropyl-N-((1R,3r,5S)-8-((4-(dimethylamino)piperidin-1-yl)sulfonyl)-8-azabicyclo[3.2.1]octan-3-yl)isoxazole-3-carboxamide] | 2.39 | 53.2 |
| CCC[C@H]1C[C@@H](NC(=O)c2cc(C3CC3)on2)CCN1S(=O)(=O)CCCN [compound 806, N-((2S,4S)-1-((3-aminopropyl)sulfonyl)-2-propylpiperidin-4-yl)-5-cyclopropylisoxazole-3-carboxamide] | 2.4 | 113 |
| CN(C)[C@H]1CC[C@H](S(=O)(=O)N2[C@@H]3CC[C@H]2C[C@@H](NC(=O)c2cc(C4CC4)on2)C3)CC1 [compound 807, 5-cyclopropyl-N-((1R,3R,5S)-8-(((1r,4R)-4-(dimethylamino)cyclohexyl)sulfonyl)-8-azabicyclo[3.2.1]octan-3-yl)isoxazole-3-carboxamide] | 2.44 | 85.7 |
| C[C@H]1C[C@@H](NC(=O)c2cc(C3CC3)on2)CCN1S(=O)(=O)N1CCC(NCCO)CC1 [compound 808, 5-cyclopropyl-N-((2S,4S)-1-((4-((2-hydroxyethyl)amino)piperidin-1-yl)sulfonyl)-2-methylpiperidin-4-yl)isoxazole-3-carboxamide] | 2.47 | 36.8 |
| CC(C)CN1CCC(CS(=O)(=O)N2[C@@H]3CC[C@H]2C[C@@H](NC(=O)c2cc(C4CC4)on2)C3)CC1 [compound 809, 5-cyclopropyl-N-((1R,3r,5S)-8-(((1-isobutylpiperidin-4-yl)methyl)sulfonyl)-8-azabicyclo[3.2.1]octan-3-yl)isoxazole-3-carboxamide] | 2.49 | 42.7 |
| O=C(N[C@H]1C[C@H]2CC[C@@H](C1)N2S(=O)(=O)N1CCC(NCc2ccccc2)CC1)c1cc(C2CC2)on1 [compound 810, N-((1R,3r,5S)-8-((4-(benzylamino)piperidin-1-yl)sulfonyl)-8-azabicyclo[3.2.1]octan-3-yl)-5-cyclopropylisoxazole-3-carboxamide] | 2.53 | 72.2 |
| CCc1cc(C(=O)N[C@H]2CCN(S(=O)(=O)c3ccc(C(C)(C)N)cc3)[C@@H](C)C2)no1 [compound 811, N-((2S,4S)-1-((4-(2-aminopropan-2-yl)phenyl)sulfonyl)-2-methylpiperidin-4-yl)-5-ethylisoxazole-3-carboxamide] | 2.58 | 33.6 |
| CNC1CCN(S(=O)(=O)N2[C@@H]3CC[C@H]2C[C@@H](NC(=O)c2cc(C4CC4)on2)C3)CC1 [compound 812, 5-cyclopropyl-N-((1R,3r,5S)-8-((4-(methylamino)piperidin-1-yl)sulfonyl)-8-azabicyclo[3.2.1]octan-3-yl)isoxazole-3-carboxamide] | 2.65 | 41.1 |
| C[C@H]1C[C@@H](NC(=O)c2cc(C3CC3)on2)CCN1S(=O)(=O)N1CCC2(CCN2)CC1 [compound 813, N-((2S,4S)-1-((1,7-diazaspiro[3.5]nonan-7-yl)sulfonyl)-2-methylpiperidin-4-yl)-5-cyclopropylisoxazole-3-carboxamide] | 2.73 | 35.7 |
| C[C@H]1C[C@@H](NC(=O)c2cc(C3CC3)on2)CCN1S(=O)(=O)CC[C@H]1CCN(C)C1 [compound 814, 5-cyclopropyl-N-((2S,4S)-2-methyl-1-((2-((R)-1-methylpyrrolidin-3-yl)ethyl)sulfonyl)piperidin-4-yl)isoxazole-3-carboxamide] | 2.77 | 44.2 |
| CCc1cc(C(=O)N[C@H]2C[C@H]3CC[C@@H](C2)N3S(=O)(=O)[C@H]2CC[C@@H](N)CC2)no1 [compound 815, N-((1R,3R,5S)-8-(((1s,4S)-4-aminocyclohexyl)sulfonyl)-8-azabicyclo[3.2.1]octan-3-yl)-5-ethylisoxazole-3-carboxamide] | 2.78 | 52.6 |
| C[C@@H](C1CCN(C)CC1)S(=O)(=O)N1[C@@H]2CC[C@H]1C[C@@H](NC(=O)c1cc(C3CC3)on1)C2 [compound 816, 5-cyclopropyl-N-((1R,3S,5S)-8-(((S)-1-(1-methylpiperidin-4-yl)ethyl)sulfonyl)-8-azabicyclo[3.2.1]octan-3-yl)isoxazole-3-carboxamide] | 2.91 | 52.3 |
| O=C(N[C@H]1C[C@H]2CC[C@@H](C1)N2S(=O)(=O)N1CC2CCC(C1)N2)c1cc(C2CC2)on1 [compound 817, N-((1R,3r,5S)-8-((3,8-diazabicyclo[3.2.1]octan-3-yl)sulfonyl)-8-azabicyclo[3.2.1]octan-3-yl)-5-cyclopropylisoxazole-3-carboxamide] | 3.11 | 34.8 |
| CC(C)CN1CCC2(CC1)CN(S(=O)(=O)N1[C@@H]3CC[C@H]1C[C@@H](NC(=O)c1cc(C4CC4)on1)C3)C2 [compound 818, 5-cyclopropyl-N-((1R,3r,5S)-8-((7-isobutyl-2,7-diazaspiro[3.5]nonan-2-yl)sulfonyl)-8-azabicyclo[3.2.1]octan-3-yl)isoxazole-3-carboxamide] | 3.13 | 55.4 |
| C[C@H]1C[C@@H](NC(=O)c2cc(C3CC3)on2)CCN1S(=O)(=O)C[C@@H]1CCC[C@@H](N)C1 [compound 819, N-((2S,4S)-1-((((1R,3R)-3-aminocyclohexyl)methyl)sulfonyl)-2-methylpiperidin-4-yl)-5-cyclopropylisoxazole-3-carboxamide] | 3.2 | 124 |
| CN(CCO)C1CCN(S(=O)(=O)N2[C@@H]3CC[C@H]2C[C@@H](NC(=O)c2cc(C4CC4)on2)C3)CC1 [compound 820, 5-cyclopropyl-N-((1R,3r,5S)-8-((4-((2-hydroxyethyl)(methyl)amino)piperidin-1-yl)sulfonyl)-8-azabicyclo[3.2.1]octan-3-yl)isoxazole-3-carboxamide] | 3.27 | 57.4 |
| CC(C)CCNC1CCN(S(=O)(=O)N2[C@@H]3CC[C@H]2C[C@@H](NC(=O)c2cc(C4CC4)on2)C3)CC1 [compound 821, 5-cyclopropyl-N-((1R,3r,5S)-8-((4-(isopentylamino)piperidin-1-yl)sulfonyl)-8-azabicyclo[3.2.1]octan-3-yl)isoxazole-3-carboxamide] | 3.28 | 58.5 |
| CCN1C2CCC1CN(S(=O)(=O)N1[C@@H]3CC[C@H]1C[C@@H](NC(=O)c1cc(C4CC4)on1)C3)C2 [compound 822, 5-cyclopropyl-N-((1R,3r,5S)-8-((8-ethyl-3,8-diazabicyclo[3.2.1]octan-3-yl)sulfonyl)-8-azabicyclo[3.2.1]octan-3-yl)isoxazole-3-carboxamide] | 3.44 | 43.7 |
| C[C@H]1C[C@@H](NC(=O)c2cc(C3CC3)on2)CCN1S(=O)(=O)CC1CCC(N(C)C)C1 (stereo partly drawn) [compound 823, 5-cyclopropyl-N-((2S,4S)-1-(((3-(dimethylamino)cyclopentyl)methyl)sulfonyl)-2-memylpiperidin-4-yl)isoxazole-3-carboxamide] | 3.5 | 67.2 |
| O=C(N[C@H]1C[C@H]2CC[C@@H](C1)N2S(=O)(=O)N1CC2(CCN(Cc3ccccc3)CC2)C1)c1cc(C2CC2)on1 [compound 824, N-((1R,3r,5S)-8-((7-benzyl-2,7-diazaspiro[3.5]nonan-2-yl)sulfonyl)-8-azabicyclo[3.2.1]octan-3-yl)-5-cyclopropylisoxazole-3-carboxamide] | 3.87 | 80.4 |
